Laboratory results reported in patent US20140242595A1, “HEPATOCYTE PRODUCTION VIA FORWARD PROGRAMMING BY COMBINED GENETIC AND CHEMICAL ENGINEERING” (Cellular Dynamics International, Inc., priority 2013, published 2014).

Experiments:
[1] = tested on: human rtTET-expressing ESCs transfected with GFH, H1AM and TBX3; assay: Hepatic programming efficiency by albumin (ALB) flow analysis; assay type: cell-based; conditions: for % ALB-expressing cells (hepatic programming efficiency): 0.5 μM, alone, added along with doxycycline day 1 to day 7 post-plating, FIG. 6
Excerpt: Genes that are either implicated in hepatic differentiation during normal mammalian development or enriched in adult hepatocytes were cloned into the PiggyBac vector (FIG. 3) under the control of the […] promoter (Table 1). To find transcription factors that are able to directly impose mature hepatic fate upon human ESCs, various combinations of transgene-expressing PiggyBac vectors along with the hPBase-expressing vector were introduced into the human ESCs having constitutive expression of rtTET through nucleofection (Minis Ingenio Electroporation solution: cat#MIR50114; program: Amaxa B-016). Nucleofected human ESCs were cultured on matrigel in mTeSR1 (Stem Cell Technologies). Following geneticin (100 μg/ml) selection for stable genomic transgene integration (cells were passaged at lease once prior to differentiation), human ESCs were individualized by accutase treatment and plated to matrigel-coated 12-well plates. […] Where appropriate, small molecules, such as MEK inhibitor PD0325901, TGFβ kinase/activin receptor like kinase (ALK5) inhibitor A 83-01, and an analogue of the natural signaling molecule cyclic AMP 8-Bromoadenosine 3',5'-cyclic monophosphate (8-Br-cAMP), were added during hepatic programming. To determine the effect of MEK inhibitor PD0325901 (P) and TGFβ kinase/activin receptor like kinase (ALK5) inhibitor A 83-01 (A) on hepatic programming efficiency, human rtTET-expressing ESCs transfected with […] and TBX3 were plated on matrigel-coated 12-well plates at about 0.2×10^6 cells/well in mTeSR supplemented with 10 μM HA100 on day 0. […] Cells were collected for albumin (ALB) flow analysis on day 13 post-plating. […] Transfected cells were plated on matrigel-coated 12-well plates at about 0.2×10^6 cells/well in mTeSR supplemented with 10 μM HA100 on day 0. […] Cells were collected for ALB flow analysis on day 12 post-plating. […] With transgene expression, hepatocyte-like cells with polygonal shapes, distinct nuclei, and tight cell-cell contacts were readily observed. To determine the effect of cyclic AMP analog 8-Br-cAMP on hepatic programming, human rtTET-expressing ESCs transfected with […] and TBX3 were plated on matrigel-coated 12-well plates at about 0.2×10^6 cells/well in mTeSR supplemented with 10 μM HA100 on day 0. […] Cells were collected for ALB flow analysis on day 13 post-plating.

[2] = tested on: MEK; conditions: Bain et al., 2007; cited from earlier work

O=C(NOC[C@H](O)CO)c1ccc(F)c(F)c1Nc1ccc(I)cc1F [PD0325901]
% ALB-expressing cells (hepatic programming efficiency) ([1]; ALB flow analysis day 13): significantly improves

O=C(NOCC1CC1)c1ccc(F)c(F)c1Nc1ccc(I)cc1Cl [PD184352]
specificity and potency compared to other known MEK inhibitors [2]: high degree of specificity and potency

C[C@H]1c2cccc(O)c2C(=O)C2=C(O)[C@]3(O)C(=O)C(C(N)=O)=C(O)[C@@H](N(C)C)[C@@H]3[C@@H](O)[C@@H]21 [Doxycycline]
optimal time window for transgene induction for hepatic programming ([1]; doxycycline 1 μg/ml with P and A for 0, 2, 4, 6, 8 or 10 days, ALB flow analysis day 12, FIG. 7A): 4 days

Nc1ncnc2c1nc(Br)n2[C@@H]1O[C@@H]2COP(=O)(O)O[C@H]2[C@H]1O [8-Br-cAMP, 8-Bromoadenosine 3′,5′-cyclic monophosphate]
saturation concentration for improved hepatic programming ([1]; added from day 7 after removal of doxycycline, P and A, ALB flow analysis day 13, FIG. 8): ~200 µM
hepatic programming (ALB flow analysis) ([1]; different concentrations added from day 7 after removal of doxycycline, P and A, ALB flow analysis day 13, FIG. 8): significantly improved

Cc1cccc(-c2nn(C(=S)Nc3ccccc3)cc2-c2ccnc3ccccc23)n1 [A 83-01]
% ALB-expressing cells (hepatic programming efficiency) ([1]; ALB flow analysis day 13): significantly improves
